Molecular target: T1, 5'-nucleotidase (Rattus norvegicus, UniProt P21588)
T1 sequence (P21588 whole entry): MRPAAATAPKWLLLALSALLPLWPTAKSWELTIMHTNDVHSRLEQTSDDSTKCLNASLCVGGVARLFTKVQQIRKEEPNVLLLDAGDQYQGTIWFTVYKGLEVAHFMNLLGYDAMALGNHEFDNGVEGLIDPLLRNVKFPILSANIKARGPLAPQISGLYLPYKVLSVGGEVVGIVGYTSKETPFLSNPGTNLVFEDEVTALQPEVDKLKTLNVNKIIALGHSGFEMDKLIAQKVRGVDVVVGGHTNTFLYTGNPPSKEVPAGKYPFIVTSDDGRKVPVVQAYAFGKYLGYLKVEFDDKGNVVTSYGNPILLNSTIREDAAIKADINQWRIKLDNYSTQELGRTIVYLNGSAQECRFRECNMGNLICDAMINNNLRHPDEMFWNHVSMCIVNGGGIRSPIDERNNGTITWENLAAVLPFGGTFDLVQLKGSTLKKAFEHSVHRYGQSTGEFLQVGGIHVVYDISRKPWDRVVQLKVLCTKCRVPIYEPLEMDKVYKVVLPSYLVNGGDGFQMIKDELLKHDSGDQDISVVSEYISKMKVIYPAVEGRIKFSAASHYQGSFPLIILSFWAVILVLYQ

- Ki: 124 nM
SMILES: COc1cccc(OC)c1-c1cc(C(=O)NC2(C(=O)O)C3CC4CC(C3)CC2C4)nn1-c1ccnc2cc(Cl)ccc12 (stereo unspecified)
